Results published in article PMC10731318, “Heterologously expressed SacP23, a novel bacteriocin from Paenibacillus polymyxa #23, is active against methicillin resistant Staphylococcus aureus” (Royal Society Open Science, 2023).

What was measured:
[1] = isolated from a Cyanobacteria sp.; cited from earlier work
[2] = test system: Pseudomonas aeruginosa and K. pneumonia; conditions: cited from earlier work
[3] = test system: L. monocytogenes192/1-2 ACM 3173; format: cell-based, Listeria monocytogenes; conditions: purified SacP23; L. monocytogenes 192/1-2 ACM 3173; medium MHA
lipase = lipase 1 mg ml^−1, 1 h; spot-on-lawn versus untreated sample
L. plantarum A6 = format: cell-based, Lactobacillus plantarum; conditions: purified SacP23, medium deMan, Rogosa and Sharpe (MRS)
B. subtilis BS34A = format: cell-based, Bacillus subtilis
B. cereus ATCC 10876 = format: cell-based, Bacillus cereus; conditions: purified SacP23, medium MHA
E. coli ATCC 25922 = format: cell-based; conditions: purified SacP23, medium MHA
pronase E = pronase E 1 mg ml^−1, 1 h; spot-on-lawn versus untreated sample
catalase = catalase 1 mg ml^−1, 1 h; spot-on-lawn versus untreated sample
E. faecalis (VRE) 345/19 = format: cell-based, Enterococcus faecalis; conditions: purified SacP23, medium MRS
C. perfringens EHE-NE18 = format: cell-based, Clostridium perfringens; conditions: purified SacP23, medium MHA
C. jejuni ATCC 81116 = format: cell-based, Campylobacter jejuni; conditions: purified SacP23, medium MHA + 5% sheep blood
proteinase K = proteinase K (Parengyodontium album, UniProt P06873); conditions: proteinase K 1 mg ml^−1, 1 h; spot-on-lawn versus untreated sample
trypsin = trypsin 1 mg ml^−1, 1 h; spot-on-lawn versus untreated sample
[4] = test system: S. Enteritidis ATCC 13076; format: cell-based, Salmonella Enteritidis; conditions: purified SacP23, medium MHA
S. aureus MRSA 344/2-24 = format: cell-based, Staphylococcus aureus
S. aureus ATCC 25923 = format: cell-based, Staphylococcus aureus; conditions: purified SacP23, medium MHA, clear zone, 30°C 12–18 h
[5] = test system: Gram-positive and Gram-negative bacteria; conditions: cited from earlier work
From the text: Further studies need to be undertaken to fully assess the potency of the SacP23 by performing minimum inhibitory concentration tests for a range of sensitive bacteria. […] This indicates the diversity in antimicrobial spectra of sactipeptide-type ...

[6] = test system: many Gram-negative bacteria including colistin-resistant Klebsiella pneumonia, E. coli, and Campylobacter species; conditions: cited from earlier work
[7] = test system: Gram-negative and Gram-positive pathogens including antibiotic-resistant strains of E. coli, P. aeruginosa, Acinetobacter baumannii, K. pneumoniae, S. aureus …; conditions: cited from earlier work
[8] = test system: many phytopathogens and Gram-positive bacteria; conditions: cited from earlier work

proteinase K, sequence (P06873 106-384): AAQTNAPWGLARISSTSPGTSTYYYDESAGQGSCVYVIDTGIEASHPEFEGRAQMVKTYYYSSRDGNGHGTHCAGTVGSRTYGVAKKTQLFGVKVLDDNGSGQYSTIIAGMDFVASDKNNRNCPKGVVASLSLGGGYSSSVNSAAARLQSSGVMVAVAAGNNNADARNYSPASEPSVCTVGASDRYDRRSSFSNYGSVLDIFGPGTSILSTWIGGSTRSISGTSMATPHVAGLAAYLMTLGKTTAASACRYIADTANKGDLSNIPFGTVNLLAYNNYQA

For landornamide A, the antiviral activity [1] is given as “antiviral activity”.
In the case of Polymyxin, the growth suppression [2] is listed as “suppress the growth”.
In the case of “MRKLVKRSTNVGDTIEAFGCGCSCYCPCSCYCAGSLTRSSNTSRESDGSYRRDNGTGIGN [SacP23, novel sactipeptide bacteriocin from Paenibacillus polymyxa #23, heterologously expressed in B. subtilis BS34A and purified; mature structure not elucidated]”, the antimicrobial activity [3] is reported as “−”, the “enzymatic stability: remaining antimicrobial activity after lipase” value (lipase) is reported as “resistant” and the antimicrobial activity (L. plantarum A6) is reported as “−”. For the same substance, the antimicrobial activity (B. subtilis BS34A; purified SacP23, B. subtilis BS34A, medium MHA) was “+”, the “sensitivity of the base B. subtilis expression strain” value (B. subtilis BS34A; recombinant SacP23, result in words) was “sensitive” and the antimicrobial activity (B. cereus ATCC 10876) was “+”. The antimicrobial activity (E. coli ATCC 25922) was “−”, the “enzymatic stability: remaining antimicrobial activity after pronase E” value (pronase E) was “sensitive” and the “enzymatic stability: remaining antimicrobial activity after catalase” value (catalase) was “resistant”. The antimicrobial activity (E. faecalis (VRE) 345/19) was “+”, the antimicrobial activity (C. perfringens EHE-NE18) was “−” and the antimicrobial activity (C. jejuni ATCC 81116) was “−”. The “enzymatic stability: remaining antimicrobial activity after proteinase K” value (proteinase K) was “sensitive”, the “enzymatic stability: remaining antimicrobial activity after trypsin” value (trypsin) was “sensitive” and the antimicrobial activity [4] was “−”. For the same substance, the “antimicrobial activity against an MRSA isolate” value (S. aureus MRSA 344/2-24; heterologously expressed recombinant SacP23, result in words) was “strong activity”, the antimicrobial activity (S. aureus MRSA 344/2-24; purified SacP23, S. aureus MRSA 344/2-24, medium MHA, clear zone, 30°C 12–18 h) was “+” and the antimicrobial activity (S. aureus ATCC 25923) was “+”.
In the case of “subtilosin A (cyclo(NKGCATCSIGAACLVDGPIPDFEIAGATGLFGLWG); ends not checked; also: sactipeptide thioether linkages between Cys and alpha-carbons, positions not given here; UniProt O07623 9-43, looked up)”, the antimicrobial spectrum [5] is listed as “antimicrobial activity extending to both Gram-positive and Gram-negative bacteria”.
For Tridecaptin, the “activity against Gram-negative bacteria” value [6] is given as “strong activity”.
In the case of paenibacterin, the antimicrobial activity [7] is given as “antimicrobial activity”.
For fusaricidin B, the inhibitory activity [8] is given as “inhibitory activity”.
